# “Also recorded” adds a separate entry of the source.
# How the values were obtained:
# Type in all cases: binding
# [1] = system: human monoclonal antibody CR57
# [2] = system: human monoclonal antibody CR57; remark: listed apart in the source
# [3] = system: human monoclonal antibody CRJA
# [4] = system: human monoclonal antibody CRJA; remark: listed apart in the source
# [5] = system: human monoclonal antibody CRJB
# [6] = system: human monoclonal antibody CRJB; remark: listed apart in the source
Sequence,Binding of CR57 (10 μg/ml) to looped/cyclic peptide (PEPSCAN-ELISA) [1],Binding of CR57 to linear peptide (PEPSCAN-ELISA signal) [2],Binding of CRJA to linear peptide (PEPSCAN-ELISA signal) [3],Binding of CRJA (10 μg/ml) to looped/cyclic peptide (PEPSCAN-ELISA) [4],Binding of CRJB (10 μg/ml) to looped/cyclic peptide (PEPSCAN-ELISA) [5],Binding of CRJB to linear peptide (PEPSCAN-ELISA signal) [6],Binding of CR57 (10 μg/ml) to looped/cyclic peptide (PEPSCAN-ELISA signal) [1],Binding of CRJA (10 μg/ml) to looped/cyclic peptide (PEPSCAN-ELISA signal) [4],Binding of CRJB (10 μg/ml) to looped/cyclic peptide (PEPSCAN-ELISA signal) [5],Binding of CR57 to looped/cyclic peptide (PEPSCAN-ELISA signal) [1],Binding of human monoclonal antibody CR57 to linear peptide (PEPSCAN-ELISA signal) [2],Binding of human monoclonal antibody CRJA to linear peptide (PEPSCAN-ELISA signal) [3],Binding of CRJA to looped/cyclic peptide (PEPSCAN-ELISA signal) [4],Binding of CRJB to looped/cyclic peptide (PEPSCAN-ELISA signal) [5],Binding of human monoclonal antibody CRJB to linear peptide (PEPSCAN-ELISA signal) [6],binding of antibody CRJB to looped/cyclic peptide (PEPSCAN OD) [5]
MEADAHYKSVRTWNE,69,62,78,68,86,129,,,,,,,,,,
HMELLESSVIPLVHP,118,110,114,106,104,129,,,,,,,,,,
LDALESIMTTKSVSF,108,97,92,90,106,116,,,,,,,,,,
TEAENYTNFVGYVTT,,68,86,,,84,75,76,60,,,,,,,
FRSDEIEHLVVEELV,132,86,101,94,79,114,,,,,,,,,,
AYTIFNKTLMEADAH,118,86,98,97,78,121,,,,,,,,,,
KFPIYTILDKLGPWS,,71,65,,,97,72,43,64,,,,,,,
DACRAAYNWKMAGDP,,84,83,,,113,133,110,77,,,,,,,
LPDVHNQVSGVDLGL,,,,,,,,,,116,104,97,98,118,154,
DGTWVAMQTSNETKW,56,69,63,45,58,114,,,,,,,,,,
GFVDERGLYKSLKGA,107,84,104,87,86,120,,,,,,,,,,
SLHSRVFPSGKCSGV,,69,96,,,111,115,97,86,,,,,,,
RTVKTTKESLVIISP,,82,103,,,120,88,88,69,,,,,,,
NHDYTIWMPENPRLG,,71,108,,,119,170,123,186,,,,,,,display reactivity; also recorded: clearly bound
PENPRLGMSCDIFTN,,83,94,,,111,116,83,98,,,,,,,

# Reference: patent US20060263802A1 (priority 2003, published 2006)
